Consider eleven compounds from patent US9271969B2, “Compounds as inhibitors of diacylglycerol O-acyltransferase type 1 enzyme” (KAINOS MEDICINE, INC., priority 2012, dated 2016).

Molecules are shown by their SMILES.

As a reminder, the IC50 is the point on the concentration scale where inhibition reaches its midpoint. Lower therefore signals greater potency.

One test deals with human DGAT1 (Homo sapiens (Human), UniProt O75907). Kind of test: Radiometric DGAT1 assay, human liver microsomes. In kind it is biochemical. Conditions: Source of human DGAT activity B = human liver microsomes. The text has this: (§1) A second source of DGAT1 activity was human or mouse liver microsomes.
On the technique in general: Liver microsomes are vesicles of endoplasmic reticulum, rich in cytochrome P450 enzymes.

Another test deals with mouse DGAT1 (Mus musculus (Mouse), UniProt Q9Z2A7). Kind of test: Radiometric DGAT1 assay, mouse liver microsomes. In kind it is biochemical. Conditions: mouse liver microsomes having mouse DGAT1 activity.
Text: as §1

Chain of mouse DGAT1 (Q9Z2A7 whole entry): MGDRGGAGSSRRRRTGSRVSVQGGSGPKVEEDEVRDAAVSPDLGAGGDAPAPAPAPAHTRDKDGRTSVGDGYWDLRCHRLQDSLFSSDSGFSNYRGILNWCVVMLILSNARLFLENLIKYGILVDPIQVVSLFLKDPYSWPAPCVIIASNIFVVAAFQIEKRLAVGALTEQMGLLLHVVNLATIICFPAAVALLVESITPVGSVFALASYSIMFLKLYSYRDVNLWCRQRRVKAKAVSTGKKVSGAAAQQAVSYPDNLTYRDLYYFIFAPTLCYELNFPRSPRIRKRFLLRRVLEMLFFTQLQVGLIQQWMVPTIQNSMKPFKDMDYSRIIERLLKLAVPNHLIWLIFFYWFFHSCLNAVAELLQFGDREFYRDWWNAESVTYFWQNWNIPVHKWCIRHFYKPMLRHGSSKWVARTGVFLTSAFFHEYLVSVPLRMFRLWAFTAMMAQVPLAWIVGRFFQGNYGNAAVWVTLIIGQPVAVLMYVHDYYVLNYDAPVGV
Chain of human DGAT1 (O75907 whole entry): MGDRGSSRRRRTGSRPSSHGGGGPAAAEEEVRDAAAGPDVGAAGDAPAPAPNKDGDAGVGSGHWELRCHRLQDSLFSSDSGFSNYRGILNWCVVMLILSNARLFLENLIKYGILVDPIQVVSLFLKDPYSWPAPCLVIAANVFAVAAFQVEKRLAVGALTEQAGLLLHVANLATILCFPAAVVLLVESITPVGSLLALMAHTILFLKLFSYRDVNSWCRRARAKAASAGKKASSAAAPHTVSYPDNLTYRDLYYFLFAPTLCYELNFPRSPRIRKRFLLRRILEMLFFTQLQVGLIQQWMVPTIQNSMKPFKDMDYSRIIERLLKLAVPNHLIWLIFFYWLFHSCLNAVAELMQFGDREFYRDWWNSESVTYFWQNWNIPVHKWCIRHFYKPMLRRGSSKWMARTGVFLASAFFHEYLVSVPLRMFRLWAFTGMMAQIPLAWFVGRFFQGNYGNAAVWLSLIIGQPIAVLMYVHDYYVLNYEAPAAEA

In the case of `O=C(O)C[C@H]1CC[C@H](c2ccc(-c3ccc4nc(C(=O)NCc5ccc(C(F)(F)F)cc5)cn4c3)cc2)CC1` [Compound 4, 2-((1r,4r)-4-(4-(2-((4-(Trifluoromethyl)benzyl)carbamoyl)imidazo[1,2-a]pyridin-6-yl)-phenyl)cyclohexyl)acetic acid], the 50% inhibitory concentration (IC50) is below 150 nM against human DGAT1 and below 75 nM on mouse DGAT1.

As for `O=C(O)C[C@H]1CC[C@H](c2ccc(-c3ccc4nc(C(=O)Nc5cccc(OC(F)(F)F)c5)cn4c3)cc2)CC1` [Compound 5, 2-((1r,4r)-4-(4-(2-((3-(Trifluoromethoxy)phenyl)carbamoyl)imidazo[1,2-a]pyridin-6-yl)-phenyl)cyclohexyl)acetic acid], the figures for the 50% inhibitory concentration (IC50) on human DGAT1 and against mouse DGAT1 were below 100 nM and below 125 nM, respectively.

In the case of `O=C(O)C[C@H]1CC[C@H](c2ccc(-c3ccc4nc(C(=O)Nc5cccc(C(F)(F)F)c5)cn4c3)cc2)CC1` [Compound 6, 2-((1r,4r)-4-(4-(2-((3-(Trifluoromethyl)phenyl)carbamoyl)imidazo[1,2-a]pyridin-6-yl)-phenyl)cyclohexyl)acetic acid], the results for the IC50 at human DGAT1 and at mouse DGAT1 were below 75 nM and below 150 nM, respectively.

For the compound `O=C(O)C[C@H]1CC[C@H](c2ccc(-c3ccc4nc(C(=O)NCc5cccc(OC(F)(F)F)c5)cn4c3)cc2)CC1` [Compound 7, 2-((1r,4r)-4-(4-(2-((3-(Trifluoromethoxy)benzyl)carbamoyl)imidazo[1,2-a]pyridin-6-yl)-phenyl)cyclohexyl)acetic acid], the IC50 against human DGAT1 is below 175 nM; at mouse DGAT1, below 100 nM.

On to `CC(C)(C)c1ccc(CNC(=O)c2cn3cc(-c4ccc([C@H]5CC[C@H](CC(=O)O)CC5)cc4)ccc3n2)cc1` [Compound 8, 2-((1r,4r)-4-(4-(2-((4-(tert-Butyl)benzyl)carbamoyl)imidazo[1,2-a]pyridin-6-yl)phenyl)-cyclohexyl)acetic acid], for which the IC50 against human DGAT1 is below 125 nM; at mouse DGAT1, below 50 nM.

`COc1ccc(CNC(=O)c2cn3cc(-c4ccc([C@H]5CC[C@H](CC(=O)O)CC5)cc4)ccc3n2)cc1OC` [Compound 23, 2-((1r,4r)-4-(4-(2-((3,4-Dimethoxybenzyl)carbamoyl)imidazo[1,2-a]pyridin-6-yl)phenyl)-cyclohexyl)acetic acid]: the IC50 against human DGAT1 and against mouse DGAT1 was below 25 nM in each case.

For `O=C(O)C[C@H]1CC[C@H](c2ccc(-c3ccc4nc(C(=O)NCc5ccccc5)cn4c3)cc2)CC1` [Compound 31, 2-((1r,4r)-4-(4-(2-(Benzylcarbamoyl)imidazo[1,2-a]pyridin-6-yl)phenyl)cyclohexyl)acetic acid], the IC50 on human DGAT1 was below 50 nM; against mouse DGAT1, below 100 nM.

`COc1ccccc1CNC(=O)c1cn2cc(-c3ccc([C@H]4CC[C@H](CC(=O)O)CC4)cc3)ccc2n1` [Compound 41, 2-((1r,4r)-4-(4-(2-((2-Methoxybenzyl)carbamoyl)imidazo[1,2-a]pyridin-6-yl)phenyl)cyclohexyl)acetic acid]: the 50% inhibitory concentration (IC50) against human DGAT1 was below 25 nM; against mouse DGAT1, below 75 nM.

`O=C(O)CC1CCC(c2ccc(-c3ccc4nc(C(=O)NCc5c(F)cc(Cl)cc5F)cn4c3)cc2)CC1` (stereo not shown) [Compound 42, 2-((1s,4s)-4-(4-(2-((4-chloro-2,6-difluorobenzyl)carbamoyl)imidazo[1,2-a]pyridin-6-yl)phenyl)cyclohexyl)acetic acid]: the IC50 against human DGAT1 and at mouse DGAT1 was below 10 nM each time.

For the compound `Cc1cc(Cl)cc(Cl)c1CNC(=O)c1cn2cc(-c3ccc(C4CCC(CC(=O)O)CC4)cc3)ccc2n1` (stereo not shown) [Compound 43, 2-((1s,4s)-4-(4-(2-((2,4-Dichloro-6-methylbenzyl)carbamoyl)imidazo[1,2-a]pyridin-6-yl)phenyl)cyclohexyl)acetic acid], the IC50 against human DGAT1 and at mouse DGAT1 was below 10 nM each time.

Regarding `Cc1cc(C)c(CNC(=O)c2cn3cc(-c4ccc(C5CCC(CC(=O)O)CC5)cc4)ccc3n2)c(C)c1` (stereo not shown) [Compound 44, 2-((1s,4s)-4-(4-(2-((2,4,6-Trimethylbenzyl)carbamoyl)imidazo[1,2-a]pyridin-6-yl)phenyl)cyclohexyl)acetic acid], the IC50 against human DGAT1 is below 25 nM; against mouse DGAT1, below 10 nM.
